Assay results: patent US20130315920A1, “Cross Protective Epitopes of Aspergillus Fumigatus and Candida Albicans” (Cell Medica Limited, priority 2010, published 2013)

Key:
[1] = test system: T-cell lines of 7 donors with different MHC class II alleles; test: Epitope mapping of Crf1 peptides with IFN-γ ELISPOT; assay type: cell-based, human; details: 7 donors tested, peptide-pulsed autologous DC
Excerpt: As the identification of potential protective fungal antigens is rather intricate due to the extensiveness of fungal genomes, we analyzed 6 different A. fumigatus recombinant proteins based on their previously reported immunogeneic reactivity in mice and humans^7,10. […] By contrast, GPI-anchored extracellular cell wall glucanase Crf1 and secreted protein peptidase induced high IFN-γ in 6 of 7 and 5 of 10 tested donors, respectively. The response was mediated by CD4^+ TH1 cells, as MHC class II blocking antibody nearly abrogated IFN-γ release (data not shown). Due to the broad response and the sequence similarity to the C. albicans orthologue Crh1, we focused in subsequent experiments on the protein Crf1. By epitope mapping of 7 healthy individuals with different MHC class II alleles, we identified 10 potential candidate epitopes (Table 1). Based on the results obtained by epitope mapping, the probability of antigen presentation by certain MHC class II alleles assessed by epitope prediction^11, previously reported immunogeneic reactivity^12 and sequence similarity to the C. albicans homologue Crh1, we then generated CD4^+ TH1 T-cell clones specific for the peptides p1, p22, p27, p41, p48, p59, p69 and p84 (FIG. 1a and Table 1).
A peptide library covering the complete Crf1 sequence consisting of 94 15-mer peptides overlapping by […] (aa) was divided into sub-pools of 10 peptides and 94 single peptides (p1-p94) (PANATecs). 3 11-mer peptides of p40/41 overlapping by 2aa ([…], […], HTYTIDWTKDA) were obtained from JPT Peptide Technologies.
For analysis of recombinant proteins and epitope mapping, T-cell lines were generated by incubation of 1×10^7 PBMC per well in 6-well cell culture plates with 5 μg/ml protein or peptide for 7d in the presence of 5 U/ml IL-2 (Proleukin, Chiron). Antigen specificity was analyzed by IFN-γ ELISA^42 after restimulation with autologous monocytes incubated overnight with 5 μg/ml protein in a responder to stimulator (R:S) ratio of 5:1. Epitope mapping was performed by IFN-γ ELISPOT^39 after stimulation with peptide-pulsed autologous DC at a R:S ratio of 10:1.

[2] = test system: A. fumigatus cell extract; test: Peptide-specific T-cell clones stimulated with DC incubated with A. fumigatus cell extract (IFN-γ); assay type: cell-based, Aspergillus fumigatus; details: extract 20 μg/ml, DC incubated 24 h
Method: T-cell cloning was performed as described in below. T-cell clones were stimulated either with mature peptide-pulsed (2.5 μg/ml) or Crf1 mRNA-transfected DC, immature DC incubated for 24 h with A. fumigatus cell extract (20 μg/ml) in the presence of cytokine maturation cocktail or immature DC incubated for 24 h with inactivated A. fumigatus or C. albicans fungus (multiplicity of infection 3) in a R:S ratio of 5:1.
Fungal extracts were generated as described^48 and protein content was measured by Bradford protein assay (Perbio Science) according to the manufacturers' instructions. For inactivated fungus Aspergillus conidia were inoculated in growth medium^49 and cultured for 0, 4, 8 or 12 h. Candida species were cultured for 24 h. Fungi were inactivated with 70% ethanol. Ethanol-inactivated fungi and extracts were validated for sterility by subculturing on Sabouraud dextrose agar.

[3] = test system: A. flavus, A. nidulans, A. niger, A. terreus, C. glabrata and C. krusei; test: Cross-reactivity of T-cell clones to other Aspergillus and Candida species; assay type: cell-based; details: data not shown
Excerpt: We then analyzed if our T-cell clones might cross-react to other clinically relevant Aspergillus and Candida species such as A. flavus, A. nidulans, A. niger, A. terreus, C. glabrata and C. krusei because they also express proteins with some sequence similarity to A. fumigatus Crf1. […] Thus, p41-specific TH1 cells represent a core repertoire in antifungal immune responses being reactive to A. fumigatus but also to C. albicans, the second most important pathogenic fungus in HSCT patients.
Fungal strains A. fumigatus D141, A. nidulans FGSCA4, C. albicans SC5314 and clinical isolates A. fumigatus, A. terreus, A. flavus, A. niger, C. albicans, C. glabrata and C. krusei were provided by Sven Krappmann, Joachim Morschhäuser and Reno Frei.

CD4^+ spleen cells = test: Proliferation assay of purified CD4+ spleen cells ([3H]thymidine); assay type: cell-based; details: mice untreated or vaccinated with A. fumigatus or C. albicans; 5 μg/mL peptide, 3 days
Method: A. fumigatus Crf1 protein mediates cross-protection to C. albicans. Mice were injected intranasally with resting A. fumigatus conidia 14 days before infection, or with purified Crf1 protein and murine CpG oligodeoxynucleotide 1862 14, 7 and 3 days before intragastric infection with C. albicans. Note (a) the reduced inflammatory cell recruitment and acanthosis in mice vaccinated with A. fumigatus conidia or Crf1 protein as opposed to control mice shown in FIG. 5a and c and (b) the increase in protective TH1 and regulatory T-cell transcription factors and cytokine levels. […] The results are expressed as mean cpm±SEM of triplicate cultures. […]
DC (1×10^5) and CD4^+ T-cells (5×10^5) were purified from spleens of mice untreated or vaccinated with A. fumigatus or C. albicans, by magnetic separation of MicroBeads (Miltenyi Biotec) and cocultured in round-bottom, 96-well plates in 200 μl complete medium, with and without anti-CD3ε antibody (clone 145-2C11; BD PharMingen), heat-inactivated Aspergillus or Candida (at a cell:fungi ratio of 2:1), 5 μg/mL of Crf1 p41 peptide. […] Incorporation into cellular DNA was measured by liquid scintillation counting. The results are expressed as mean cpm±SEM of triplicate cultures.

Sequence: HTYTIDWTKDAVTWS (Peptide found in the Crf1 protein of Aspergillus fumigatus) [p41, Crf1 aa 161-175]
- No. of responders [1]: 5
- Response of peptide-specific T-cell clones to A. fumigatus extract [2]: All Crf1 p41-specific T-cell clones of all 5 donors
- Cross-reactivity to other Aspergillus and Candida species [3]: none of the Crf1 p27-, p41- and p59-specific T-cell clones showed any cross-reactivity to these fungi
- Antigen-specific proliferation of CD4+ spleen cells (CD4^+ spleen cells): cross-protection could be mediated by T-cells recognizing the same epitope p41
